Laboratory results as given in ChEMBL document CHEMBL3526080, “In vitro inhibition of the bile salt export pump correlates with risk of cholestatic drug-induced liver injury in humans” (Drug Metab Dispos, 2012).
pIC50: −log10 of the molar value.

Columns and labels:
Bile salt export pump [1] = target: Bile salt export pump (Rattus norvegicus, UniProt O70127); assay: Inhibition of Sprague-Dawley rat Bsep expressed in plasma membrane vesicles of Sf21 cells assessed as inhibition of ATP-dependent [3H]taurocholate uptake; format: cell membranes
Bile salt export pump [2] = target: Bile salt export pump (Homo sapiens, UniProt O95342); assay: Inhibition of human BSEP expressed in plasma membrane vesicles of Sf21 cells assessed as inhibition of ATP-dependent [3H]taurocholate uptake; format: cell membranes
Chain of Bile salt export pump (Homo sapiens, UniProt O95342) (O95342 whole entry): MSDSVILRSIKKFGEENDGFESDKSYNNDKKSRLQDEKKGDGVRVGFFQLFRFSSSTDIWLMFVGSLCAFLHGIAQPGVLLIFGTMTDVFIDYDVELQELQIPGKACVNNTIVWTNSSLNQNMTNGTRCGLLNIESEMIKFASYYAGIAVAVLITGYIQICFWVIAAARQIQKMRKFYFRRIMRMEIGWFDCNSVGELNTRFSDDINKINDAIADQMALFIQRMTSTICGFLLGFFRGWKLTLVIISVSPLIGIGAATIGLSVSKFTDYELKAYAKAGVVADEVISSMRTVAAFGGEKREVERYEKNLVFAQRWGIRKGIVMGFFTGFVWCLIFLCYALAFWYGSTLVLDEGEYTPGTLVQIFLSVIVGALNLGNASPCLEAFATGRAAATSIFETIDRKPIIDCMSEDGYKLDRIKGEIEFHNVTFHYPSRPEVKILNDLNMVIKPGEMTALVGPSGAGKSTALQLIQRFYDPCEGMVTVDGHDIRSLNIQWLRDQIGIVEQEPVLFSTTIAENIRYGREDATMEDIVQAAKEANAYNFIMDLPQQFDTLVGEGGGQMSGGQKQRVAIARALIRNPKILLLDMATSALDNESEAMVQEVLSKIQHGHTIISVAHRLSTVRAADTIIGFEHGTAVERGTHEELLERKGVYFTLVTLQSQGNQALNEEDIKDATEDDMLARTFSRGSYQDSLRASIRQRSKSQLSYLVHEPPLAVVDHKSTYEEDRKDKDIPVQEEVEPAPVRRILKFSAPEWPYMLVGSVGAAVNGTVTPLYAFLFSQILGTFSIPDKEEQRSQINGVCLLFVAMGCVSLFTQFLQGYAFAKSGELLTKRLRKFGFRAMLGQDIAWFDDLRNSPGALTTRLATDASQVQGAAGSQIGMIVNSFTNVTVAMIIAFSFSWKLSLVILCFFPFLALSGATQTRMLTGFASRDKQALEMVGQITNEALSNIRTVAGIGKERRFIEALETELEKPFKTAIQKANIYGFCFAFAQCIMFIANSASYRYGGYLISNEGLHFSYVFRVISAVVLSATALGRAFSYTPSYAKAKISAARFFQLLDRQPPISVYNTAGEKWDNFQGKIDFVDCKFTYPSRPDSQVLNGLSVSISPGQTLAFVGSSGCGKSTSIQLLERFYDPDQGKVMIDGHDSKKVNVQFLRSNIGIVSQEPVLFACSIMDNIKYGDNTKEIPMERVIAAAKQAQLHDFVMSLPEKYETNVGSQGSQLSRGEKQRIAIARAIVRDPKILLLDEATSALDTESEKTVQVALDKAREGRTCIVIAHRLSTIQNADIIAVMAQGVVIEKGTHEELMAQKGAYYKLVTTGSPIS

Chain of Bile salt export pump (Rattus norvegicus, UniProt O70127) (O70127 whole entry): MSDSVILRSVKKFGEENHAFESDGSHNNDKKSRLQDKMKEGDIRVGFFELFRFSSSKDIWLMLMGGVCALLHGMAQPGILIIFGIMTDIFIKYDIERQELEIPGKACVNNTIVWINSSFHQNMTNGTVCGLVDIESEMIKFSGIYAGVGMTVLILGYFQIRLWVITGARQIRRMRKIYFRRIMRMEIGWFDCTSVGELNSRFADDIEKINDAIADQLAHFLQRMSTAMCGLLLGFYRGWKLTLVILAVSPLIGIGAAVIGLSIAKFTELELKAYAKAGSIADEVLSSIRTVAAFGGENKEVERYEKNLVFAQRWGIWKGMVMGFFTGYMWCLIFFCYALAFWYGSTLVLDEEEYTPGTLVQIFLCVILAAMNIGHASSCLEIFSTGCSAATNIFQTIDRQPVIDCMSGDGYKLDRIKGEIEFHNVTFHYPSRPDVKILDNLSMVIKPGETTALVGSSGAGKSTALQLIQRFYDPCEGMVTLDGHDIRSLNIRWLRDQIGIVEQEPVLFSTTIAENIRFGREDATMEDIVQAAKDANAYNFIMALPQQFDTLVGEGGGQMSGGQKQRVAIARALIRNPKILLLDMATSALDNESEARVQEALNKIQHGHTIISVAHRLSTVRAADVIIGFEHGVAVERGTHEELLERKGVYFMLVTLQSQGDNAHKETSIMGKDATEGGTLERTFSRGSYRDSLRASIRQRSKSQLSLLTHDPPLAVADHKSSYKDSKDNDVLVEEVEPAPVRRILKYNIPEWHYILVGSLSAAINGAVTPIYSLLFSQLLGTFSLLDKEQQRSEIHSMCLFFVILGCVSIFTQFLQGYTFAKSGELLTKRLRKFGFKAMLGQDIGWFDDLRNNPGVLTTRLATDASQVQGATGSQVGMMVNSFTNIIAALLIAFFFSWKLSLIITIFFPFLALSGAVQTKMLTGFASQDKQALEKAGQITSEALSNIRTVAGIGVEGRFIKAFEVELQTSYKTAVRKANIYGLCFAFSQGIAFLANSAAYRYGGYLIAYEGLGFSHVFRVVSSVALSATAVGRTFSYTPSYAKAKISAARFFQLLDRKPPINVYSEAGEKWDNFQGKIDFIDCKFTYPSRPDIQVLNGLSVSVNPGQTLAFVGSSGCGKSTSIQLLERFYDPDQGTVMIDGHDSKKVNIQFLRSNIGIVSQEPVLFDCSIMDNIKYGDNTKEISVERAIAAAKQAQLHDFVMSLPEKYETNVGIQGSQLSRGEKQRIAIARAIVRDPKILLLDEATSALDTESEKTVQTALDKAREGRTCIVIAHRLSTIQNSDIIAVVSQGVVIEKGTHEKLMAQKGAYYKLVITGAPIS

| Structure (SMILES) | pIC50 (Bile salt export pump [1]) | pIC50 (Bile salt export pump [2]) |
| --- | --- | --- |
| Cc1onc(-c2c(Cl)cccc2Cl)c1C(=O)N[C@@H]1C(=O)N2[C@@H]1SC(C)(C)[C@@H]2C(=O)O [DICLOXACILLIN] | 3.95 | 4.16 |
| C[C@@H]1C[C@H]2[C@@H]3CCC4=CC(=O)C=C[C@]4(C)[C@@]3(F)[C@@H](O)C[C@]2(C)[C@@]1(O)C(=O)CO [DEXAMETHASONE] | 3.63 | 3.86 |
| CC(C(=O)O)c1ccc2oc(-c3ccc(Cl)cc3)nc2c1 (configuration not stated) [BENOXAPROFEN] | 4.00 | 3.76 |
| CO[C@H]1/C=C/O[C@@]2(C)Oc3c(C)c(O)c4c(O)c(cc(O)c4c3C2=O)NC(=O)/C(C)=C\C=C\[C@H](C)[C@H](O)[C@@H](C)[C@@H](O)[C@@H](C)[C@H](OC(C)=O)[C@@H]1C [RIFAMYCIN] | 5.51 | 5.20 |
| COc1cc(C)c(/C=C/C(C)=C/C=C/C(C)=C/C(=O)O)c(C)c1C [ACITRETIN] | 4.71 | 4.74 |
| CNC(=O)Oc1ccc2c(c1)[C@]1(C)CCN(C)[C@@H]1N2C [PHYSOSTIGMINE] | < 3.00 | < 3.00 |
